Measured values taken from paper PMC6407913, “DREADD Agonist 21 Is an Effective Agonist for Muscarinic-Based DREADDs in Vitro and in Vivo” (ACS Pharmacology & Translational Science, 2018).
Values joined by “and” are separate entries in the source; they are usually repeats but may differ in a detail not shown here. Equal entries are not always repeated.

What was measured:
Format in all cases: cell-based
[1] = biological target: T1, 318 nonolfactory human GPCRs (Homo sapiens, UniProt P30518); settings: AVPR2; C21 5 µM
T1 construct: expressed in transfected cells; host or cells: HTLA cells, transient

[2] = biological target: T2, 318 nonolfactory human GPCRs (Homo sapiens, UniProt O15552); settings: FFA2; C21 5 µM
T2 construct: expressed in transfected cells; host or cells: HTLA cells, transient

[3] = biological target: T3, 318 nonolfactory human GPCRs (Homo sapiens, UniProt P04201); settings: MAS1; C21 5 µM
T3 construct: expressed in transfected cells; host or cells: HTLA cells, transient

[4] = biological target: T4, 318 nonolfactory human GPCRs (Homo sapiens, UniProt Q15391); settings: P2RY14; C21 5 µM
T4 construct: expressed in transfected cells; host or cells: HTLA cells, transient

[5] = biological target: T5, 318 nonolfactory human GPCRs (Homo sapiens, UniProt O00155); settings: GPR25; C21 5 µM
T5 construct: expressed in transfected cells; host or cells: HTLA cells, transient

[6] = biological target: T6, 318 nonolfactory human GPCRs (Homo sapiens, UniProt Q9GZQ6); settings: NPFF1; C21 5 µM
T6 construct: expressed in transfected cells; host or cells: HTLA cells, transient
T6 sequence (Q9GZQ6 whole entry): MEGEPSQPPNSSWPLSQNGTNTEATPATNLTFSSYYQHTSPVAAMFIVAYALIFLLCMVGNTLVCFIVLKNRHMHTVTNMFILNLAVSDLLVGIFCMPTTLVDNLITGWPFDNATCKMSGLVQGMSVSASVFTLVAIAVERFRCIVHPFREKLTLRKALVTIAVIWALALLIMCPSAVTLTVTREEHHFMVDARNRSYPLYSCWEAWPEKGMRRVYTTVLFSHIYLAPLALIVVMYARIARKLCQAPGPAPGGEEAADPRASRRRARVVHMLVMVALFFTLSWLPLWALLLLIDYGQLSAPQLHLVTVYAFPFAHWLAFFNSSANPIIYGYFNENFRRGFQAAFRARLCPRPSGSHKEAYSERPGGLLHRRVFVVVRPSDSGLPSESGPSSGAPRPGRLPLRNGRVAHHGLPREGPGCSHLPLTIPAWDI

[7] = biological target: T7, 318 nonolfactory human GPCRs (Homo sapiens, UniProt Q86SQ4); settings: GPR126; C21 5 µM
T7 construct: expressed in transfected cells; host or cells: HTLA cells, transient

[8] = biological target: T8, 318 nonolfactory human GPCRs (Homo sapiens, UniProt Q99679); settings: GPR21; C21 5 µM
T8 construct: expressed in transfected cells; host or cells: HTLA cells, transient
T8 sequence (Q99679 whole entry): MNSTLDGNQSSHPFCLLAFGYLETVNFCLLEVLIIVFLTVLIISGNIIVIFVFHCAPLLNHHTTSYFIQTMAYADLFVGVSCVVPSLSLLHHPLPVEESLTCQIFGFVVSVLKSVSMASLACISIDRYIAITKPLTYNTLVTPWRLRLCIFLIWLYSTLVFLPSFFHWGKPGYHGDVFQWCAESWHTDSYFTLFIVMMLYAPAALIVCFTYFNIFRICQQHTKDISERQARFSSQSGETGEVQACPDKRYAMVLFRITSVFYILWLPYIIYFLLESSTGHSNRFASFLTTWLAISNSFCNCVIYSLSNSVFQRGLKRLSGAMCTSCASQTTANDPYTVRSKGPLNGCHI

[9] = biological target: 318 nonolfactory human GPCRs (Homo sapiens, UniProt P31391); settings: SSTR4; C21 5 µM
[10] = biological target: T9, 318 nonolfactory human GPCRs (Homo sapiens, UniProt P60893); settings: GPR85; C21 5 µM
T9 construct: expressed in transfected cells; host or cells: HTLA cells, transient

[11] = biological target: T10, 318 nonolfactory human GPCRs (Homo sapiens, UniProt Q96AM1); settings: MRGPRF; C21 5 µM
T10 construct: expressed in transfected cells; host or cells: HTLA cells, transient

[12] = biological target: 318 nonolfactory human GPCRs (Homo sapiens, UniProt P25021); settings: HRH2; C21 5 µM
[13] = biological target: T11, 318 nonolfactory human GPCRs (Homo sapiens, UniProt Q8TDT2); settings: GPR152; C21 5 µM
T11 construct: expressed in transfected cells; host or cells: HTLA cells, transient

[14] = biological target: 318 nonolfactory human GPCRs (Homo sapiens, UniProt P07550); settings: ADRB2; C21 5 µM
[15] = biological target: T12, 318 nonolfactory human GPCRs (Homo sapiens, UniProt P29274); settings: ADORA2A; C21 5 µM
T12 construct: expressed in transfected cells; host or cells: HTLA cells, transient

[16] = biological target: T13, 318 nonolfactory human GPCRs (Homo sapiens, UniProt P35368); settings: ADRA1B; C21 5 µM
T13 construct: expressed in transfected cells; host or cells: HTLA cells, transient
T13 sequence (P35368 whole entry): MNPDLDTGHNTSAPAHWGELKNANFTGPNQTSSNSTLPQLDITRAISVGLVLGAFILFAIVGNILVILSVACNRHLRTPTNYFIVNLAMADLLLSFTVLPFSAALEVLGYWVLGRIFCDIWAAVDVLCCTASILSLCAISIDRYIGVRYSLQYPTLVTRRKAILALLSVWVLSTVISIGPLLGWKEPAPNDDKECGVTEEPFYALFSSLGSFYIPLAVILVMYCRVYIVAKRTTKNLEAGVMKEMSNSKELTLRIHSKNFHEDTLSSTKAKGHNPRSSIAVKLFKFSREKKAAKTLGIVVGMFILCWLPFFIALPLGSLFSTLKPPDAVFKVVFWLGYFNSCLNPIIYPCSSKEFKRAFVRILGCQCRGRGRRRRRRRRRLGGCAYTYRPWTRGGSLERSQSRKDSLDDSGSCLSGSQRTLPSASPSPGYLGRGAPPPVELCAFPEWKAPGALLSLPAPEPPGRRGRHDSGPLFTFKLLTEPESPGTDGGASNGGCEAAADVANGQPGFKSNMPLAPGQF

[17] = biological target: T14, 318 nonolfactory human GPCRs (Homo sapiens, UniProt Q9P296); settings: GPR77; C21 5 µM
T14 construct: expressed in transfected cells; host or cells: HTLA cells, transient

[18] = biological target: T15, 318 nonolfactory human GPCRs (Homo sapiens, UniProt Q8IWK6); settings: GPR125; C21 5 µM
T15 construct: expressed in transfected cells; host or cells: HTLA cells, transient
T15 sequence (Q8IWK6 34-1321): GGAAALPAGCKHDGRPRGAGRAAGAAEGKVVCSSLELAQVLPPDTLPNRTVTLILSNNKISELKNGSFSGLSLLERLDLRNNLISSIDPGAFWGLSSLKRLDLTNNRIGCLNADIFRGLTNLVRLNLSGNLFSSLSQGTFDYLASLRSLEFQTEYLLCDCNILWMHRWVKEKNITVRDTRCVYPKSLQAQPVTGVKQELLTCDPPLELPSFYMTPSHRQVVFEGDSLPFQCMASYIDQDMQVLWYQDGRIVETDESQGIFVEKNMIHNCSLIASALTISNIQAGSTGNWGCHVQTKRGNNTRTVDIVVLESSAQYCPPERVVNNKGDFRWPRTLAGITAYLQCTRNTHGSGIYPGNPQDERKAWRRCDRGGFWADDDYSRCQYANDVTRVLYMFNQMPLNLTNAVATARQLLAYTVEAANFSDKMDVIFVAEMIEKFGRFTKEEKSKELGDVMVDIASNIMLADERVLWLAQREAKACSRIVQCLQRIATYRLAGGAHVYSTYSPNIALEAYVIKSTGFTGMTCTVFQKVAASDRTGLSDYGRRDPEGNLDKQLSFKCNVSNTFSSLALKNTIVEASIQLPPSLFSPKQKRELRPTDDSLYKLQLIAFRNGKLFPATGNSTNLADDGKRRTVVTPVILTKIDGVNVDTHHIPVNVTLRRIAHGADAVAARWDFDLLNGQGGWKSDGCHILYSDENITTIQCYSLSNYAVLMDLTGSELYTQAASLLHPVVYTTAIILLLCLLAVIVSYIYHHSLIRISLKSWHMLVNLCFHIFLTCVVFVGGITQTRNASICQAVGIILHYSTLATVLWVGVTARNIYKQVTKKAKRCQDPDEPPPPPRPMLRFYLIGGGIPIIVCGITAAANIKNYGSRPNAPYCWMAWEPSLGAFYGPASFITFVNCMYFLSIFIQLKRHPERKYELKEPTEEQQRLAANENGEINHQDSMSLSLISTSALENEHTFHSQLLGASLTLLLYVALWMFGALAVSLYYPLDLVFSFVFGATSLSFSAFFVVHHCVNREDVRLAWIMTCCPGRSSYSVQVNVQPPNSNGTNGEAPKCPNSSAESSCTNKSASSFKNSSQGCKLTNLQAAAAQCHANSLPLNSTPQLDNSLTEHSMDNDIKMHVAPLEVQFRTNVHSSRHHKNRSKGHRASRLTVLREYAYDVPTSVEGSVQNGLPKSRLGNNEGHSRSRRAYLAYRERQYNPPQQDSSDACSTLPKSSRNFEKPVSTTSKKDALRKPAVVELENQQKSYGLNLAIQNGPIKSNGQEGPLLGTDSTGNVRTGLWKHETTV

[19] = biological target: T16, 318 nonolfactory human GPCRs (Homo sapiens, UniProt Q15760); settings: GPR19; C21 5 µM
T16 construct: expressed in transfected cells; host or cells: HTLA cells, transient

[20] = biological target: T17, 318 nonolfactory human GPCRs (Homo sapiens, UniProt Q8TDU6); settings: GPBA; C21 5 µM
T17 construct: expressed in transfected cells; host or cells: HTLA cells, transient
T17 sequence (Q8TDU6 whole entry): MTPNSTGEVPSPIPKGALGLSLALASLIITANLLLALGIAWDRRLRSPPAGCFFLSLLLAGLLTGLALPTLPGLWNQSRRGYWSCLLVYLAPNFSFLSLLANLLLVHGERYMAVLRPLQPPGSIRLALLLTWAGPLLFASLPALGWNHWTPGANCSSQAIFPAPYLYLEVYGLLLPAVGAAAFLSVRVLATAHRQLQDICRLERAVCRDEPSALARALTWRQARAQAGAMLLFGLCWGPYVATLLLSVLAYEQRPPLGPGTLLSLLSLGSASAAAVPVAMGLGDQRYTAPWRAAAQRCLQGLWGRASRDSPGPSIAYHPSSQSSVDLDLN

[21] = biological target: T18, 318 nonolfactory human GPCRs (Homo sapiens, UniProt Q9NS66); settings: GPR173; C21 5 µM
T18 construct: expressed in transfected cells; host or cells: HTLA cells, transient

[22] = biological target: T19, 318 nonolfactory human GPCRs (Homo sapiens, UniProt Q86SP6); settings: GPR149; C21 5 µM
T19 construct: expressed in transfected cells; host or cells: HTLA cells, transient

[23] = biological target: T20, 318 nonolfactory human GPCRs (Homo sapiens, UniProt O15218); settings: GPR182; C21 5 µM
T20 construct: expressed in transfected cells; host or cells: HTLA cells, transient
T20 sequence (O15218 whole entry): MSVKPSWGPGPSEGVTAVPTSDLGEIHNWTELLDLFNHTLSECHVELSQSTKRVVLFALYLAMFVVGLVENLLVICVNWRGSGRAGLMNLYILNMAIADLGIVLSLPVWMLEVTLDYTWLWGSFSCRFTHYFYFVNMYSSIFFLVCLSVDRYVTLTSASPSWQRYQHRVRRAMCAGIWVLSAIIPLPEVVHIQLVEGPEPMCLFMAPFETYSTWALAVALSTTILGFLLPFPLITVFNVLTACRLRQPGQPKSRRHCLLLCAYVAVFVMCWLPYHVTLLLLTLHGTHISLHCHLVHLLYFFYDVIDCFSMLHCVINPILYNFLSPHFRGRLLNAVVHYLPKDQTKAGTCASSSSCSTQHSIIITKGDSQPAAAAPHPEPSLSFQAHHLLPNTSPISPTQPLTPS

[24] = biological target: T21, 318 nonolfactory human GPCRs (Homo sapiens, UniProt P35410); settings: MAS1L; C21 5 µM
T21 construct: expressed in transfected cells; host or cells: HTLA cells, transient

[25] = biological target: T22, 318 nonolfactory human GPCRs (Homo sapiens, UniProt O95838); settings: GLP2R; C21 5 µM
T22 construct: expressed in transfected cells; host or cells: HTLA cells, transient

[26] = biological target: T23, 318 nonolfactory human GPCRs (Homo sapiens, UniProt P51685); settings: CCR8; C21 5 µM
T23 construct: expressed in transfected cells; host or cells: HTLA cells, transient
T23 sequence (P51685 whole entry): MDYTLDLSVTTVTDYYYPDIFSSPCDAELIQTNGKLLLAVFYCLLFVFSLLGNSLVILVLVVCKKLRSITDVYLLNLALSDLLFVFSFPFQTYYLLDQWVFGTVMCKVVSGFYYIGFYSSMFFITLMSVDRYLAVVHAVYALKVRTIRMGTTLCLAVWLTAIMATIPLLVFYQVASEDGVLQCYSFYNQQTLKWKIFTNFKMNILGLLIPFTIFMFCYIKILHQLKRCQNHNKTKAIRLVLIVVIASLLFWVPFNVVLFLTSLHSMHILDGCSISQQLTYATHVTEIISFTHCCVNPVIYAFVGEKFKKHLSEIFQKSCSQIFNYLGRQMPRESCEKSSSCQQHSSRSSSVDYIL

[27] = biological target: T24, 318 nonolfactory human GPCRs (Homo sapiens, UniProt O00222); settings: GRM8; C21 5 µM
T24 construct: expressed in transfected cells; host or cells: HTLA cells, transient

[28] = biological target: 318 nonolfactory human GPCRs (Homo sapiens, UniProt P30872); settings: SSTR1; C21 5 µM
[29] = biological target: T25, 318 nonolfactory human GPCRs (Homo sapiens, UniProt P46091); settings: GPR1; C21 5 µM
T25 construct: expressed in transfected cells; host or cells: HTLA cells, transient
T25 sequence (P46091 whole entry): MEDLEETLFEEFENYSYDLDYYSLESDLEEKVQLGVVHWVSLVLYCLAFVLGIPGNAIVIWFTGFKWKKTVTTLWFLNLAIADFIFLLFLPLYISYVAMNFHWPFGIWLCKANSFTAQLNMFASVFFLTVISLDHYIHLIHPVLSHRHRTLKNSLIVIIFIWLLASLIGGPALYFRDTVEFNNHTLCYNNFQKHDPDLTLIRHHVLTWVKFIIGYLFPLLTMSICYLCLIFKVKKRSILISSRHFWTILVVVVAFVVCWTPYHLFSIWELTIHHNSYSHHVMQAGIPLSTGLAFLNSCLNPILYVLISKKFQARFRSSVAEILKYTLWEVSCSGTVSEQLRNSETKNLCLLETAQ

[30] = biological target: T26, 318 nonolfactory human GPCRs (Homo sapiens, UniProt Q99527); settings: GPER; C21 5 µM
T26 construct: expressed in transfected cells; host or cells: HTLA cells, transient

[31] = biological target: T27, 318 nonolfactory human GPCRs (Homo sapiens, UniProt P46095); settings: GPR6; C21 5 µM
T27 construct: expressed in transfected cells; host or cells: HTLA cells, transient
T27 sequence (P46095 whole entry): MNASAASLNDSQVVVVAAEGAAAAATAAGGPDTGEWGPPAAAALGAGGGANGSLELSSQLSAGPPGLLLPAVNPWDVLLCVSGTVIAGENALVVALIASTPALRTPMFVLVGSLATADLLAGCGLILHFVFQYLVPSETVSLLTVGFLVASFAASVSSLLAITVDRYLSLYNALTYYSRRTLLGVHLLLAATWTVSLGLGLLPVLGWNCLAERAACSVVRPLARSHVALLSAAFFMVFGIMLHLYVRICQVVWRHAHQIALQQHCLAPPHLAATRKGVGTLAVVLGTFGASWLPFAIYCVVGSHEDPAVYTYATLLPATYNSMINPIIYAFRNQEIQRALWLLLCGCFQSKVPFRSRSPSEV

[32] = biological target: 318 nonolfactory human GPCRs (Homo sapiens, UniProt P21462); settings: FPR1; C21 5 µM
[33] = biological target: T28, 318 nonolfactory human GPCRs (Homo sapiens, UniProt O14843); settings: FFA3; C21 5 µM
T28 construct: expressed in transfected cells; host or cells: HTLA cells, transient

[34] = biological target: T29, 318 nonolfactory human GPCRs (Homo sapiens, UniProt Q9GZN0); settings: GPR88; C21 5 µM
T29 construct: expressed in transfected cells; host or cells: HTLA cells, transient
T29 sequence (Q9GZN0 whole entry): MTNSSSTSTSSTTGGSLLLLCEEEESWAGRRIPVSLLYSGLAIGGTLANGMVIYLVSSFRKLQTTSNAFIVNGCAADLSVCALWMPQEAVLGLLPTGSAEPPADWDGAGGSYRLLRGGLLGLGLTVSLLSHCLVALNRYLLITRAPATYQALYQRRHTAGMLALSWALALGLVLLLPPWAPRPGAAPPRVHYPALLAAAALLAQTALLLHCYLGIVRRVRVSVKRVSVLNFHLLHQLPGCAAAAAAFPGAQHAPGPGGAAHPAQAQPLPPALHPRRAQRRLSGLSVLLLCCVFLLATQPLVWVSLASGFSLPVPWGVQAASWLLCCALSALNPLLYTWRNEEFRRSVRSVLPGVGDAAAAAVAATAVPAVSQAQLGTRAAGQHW

## c1ccc2c(c1)N=C(N1CCNCC1)c1ccccc1N2 [C21, 11-(1-piperazinyl)-5H-dibenzo[b,e][1,4]diazepine]
[1]
  FOLD OVER BASAL: 1.1 fold and 1.2 fold
[2]
  FOLD OVER BASAL: 0.9 fold and 0.8 fold and 0.6 fold
[3]
  FOLD OVER BASAL: 1.1 fold and 0.9 fold and 1 fold
[4]
  FOLD OVER BASAL: 0.9 fold and 0.7 fold and 1.1 fold and 0.8 fold
[5]
  FOLD OVER BASAL: 0.9 fold and 1.1 fold
[6]
  FOLD OVER BASAL: 1.5 fold and 1.1 fold and 1.2 fold
[7]
  FOLD OVER BASAL: 0.3 fold and 0.4 fold
[8]
  FOLD OVER BASAL: 0.9 fold and 0.8 fold and 1.2 fold and 0.7 fold
[9]
  FOLD OVER BASAL: 1.7 fold and 1.4 fold and 1.2 fold and 1.1 fold
[10]
  FOLD OVER BASAL: 0.8 fold and 1.2 fold and 1 fold
[11]
  FOLD OVER BASAL: 1.4 fold and 1.3 fold and 1 fold and 0.7 fold
[12]
  FOLD OVER BASAL: 1.7 fold and 1.4 fold and 1.6 fold and 1.3 fold
[13]
  FOLD OVER BASAL: 0.5 fold and 0.7 fold and 0.6 fold
[14]
  FOLD OVER BASAL: 1.2 fold and 0.8 fold
[15]
  FOLD OVER BASAL: 0.6 fold and 0.7 fold and 0.5 fold and 0.4 fold
[16]
  FOLD OVER BASAL: 1 fold and 0.8 fold and 1.1 fold and 0.7 fold
[17]
  FOLD OVER BASAL: 0.7 fold and 0.6 fold
[18]
  FOLD OVER BASAL: 0.5 fold and 0.8 fold and 1 fold and 0.9 fold
[19]
  FOLD OVER BASAL: 0.8 fold and 0.9 fold and 1.1 fold
[20]
  FOLD OVER BASAL: 1.1 fold and 1 fold and 1.2 fold
[21]
  FOLD OVER BASAL: 0.8 fold and 0.5 fold
[22]
  FOLD OVER BASAL: 0.8 fold and 0.5 fold and 0.7 fold and 0.9 fold
[23]
  FOLD OVER BASAL: 0.9 fold and 1 fold and 1.1 fold and 0.7 fold
[24]
  FOLD OVER BASAL: 0.6 fold and 1 fold
[25]
  FOLD OVER BASAL: 0.7 fold and 0.8 fold and 0.5 fold and 0.9 fold
[26]
  FOLD OVER BASAL: 0.8 fold and 1.3 fold and 1.5 fold and 1.1 fold
[27]
  FOLD OVER BASAL: 0.7 fold and 0.9 fold and 0.6 fold
[28]
  FOLD OVER BASAL: 1 fold and 0.6 fold and 0.8 fold
[29]
  FOLD OVER BASAL: 1.1 fold and 1.4 fold and 0.8 fold and 1 fold
[30]
  FOLD OVER BASAL: 0.4 fold and 0.2 fold and 0.3 fold
[31]
  FOLD OVER BASAL: 0.9 fold and 1.3 fold and 1 fold and 1.2 fold
[32]
  FOLD OVER BASAL: 0.9 fold and 0.7 fold and 0.6 fold
[33]
  FOLD OVER BASAL: 0.6 fold and 0.7 fold
[34]
  FOLD OVER BASAL: 1.1 fold and 1.9 fold and 1.5 fold
